Assay results published in PubChem BioAssay (NCI).
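Each compound was tested at five concentrations against cells in 96-well plates for 48 hours. TGI is the concentration that stops growth completely.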

Legend:
Assay in all cases: NCI tumour cell line growth inhibition, 48 h
UO-31 renal = test system: UO-31 renal
RXF 393 renal = test system: RXF 393 renal
SF-268 CNS = test system: SF-268 CNS
SNB-19 CNS = test system: SNB-19 CNS
KM12 colon = test system: KM12 colon
SK-OV-3 ovarian = test system: SK-OV-3 ovarian
SF-295 CNS = test system: SF-295 CNS
NCI-H522 lung = test system: NCI-H522 lung
MOLT-4 leukemia = test system: MOLT-4 leukemia
SN12C renal = test system: SN12C renal
IGROV1 ovarian = test system: IGROV1 ovarian
CCRF-CEM leukemia = test system: CCRF-CEM leukemia
M14 melanoma = test system: M14 melanoma
OVCAR-8 ovarian = test system: OVCAR-8 ovarian
NCI-H23 lung = test system: NCI-H23 lung
PC-3 prostate = test system: PC-3 prostate
A498 renal = test system: A498 renal
U251 CNS = test system: U251 CNS
MDA-MB-435 = test system: MDA-MB-435
DU-145 prostate = test system: DU-145 prostate

| SMILES | TGI (UO-31 renal) | TGI (RXF 393 renal) | TGI (SF-268 CNS) | TGI (SNB-19 CNS) | TGI (KM12 colon) | TGI (SK-OV-3 ovarian) | TGI (SF-295 CNS) | TGI (NCI-H522 lung) | TGI (MOLT-4 leukemia) | TGI (SN12C renal) | TGI (IGROV1 ovarian) | TGI (CCRF-CEM leukemia) | TGI (M14 melanoma) | TGI (OVCAR-8 ovarian) | TGI (NCI-H23 lung) | TGI (PC-3 prostate) | TGI (A498 renal) | TGI (U251 CNS) | TGI (MDA-MB-435) | TGI (DU-145 prostate) |
| --- | --- | --- | --- | --- | --- | --- | --- | --- | --- | --- | --- | --- | --- | --- | --- | --- | --- | --- | --- | --- |
| C=C(C)CC(C)(c1cc2ccccc2n1C)N1CCOCC1 (configuration not stated) | > 100 µM | > 100 µM | > 100 µM | > 100 µM | > 100 µM | > 100 µM | > 100 µM | 60.9 µM | > 100 µM | > 100 µM | > 100 µM | > 100 µM | > 100 µM | > 100 µM | > 100 µM |  |  |  |  |  |
| COC(=O)/C=C(\C)CC/C=C(\C)CCC(O)C(C)(C)O (configuration not stated) | > 100 µM | 59.9 µM |  | > 100 µM | 28.4 µM | > 100 µM | 61.6 µM |  | 39 µM | 37.5 µM | > 100 µM | 41.8 µM | 81.3 µM | 67 µM | 98.3 µM | 30.8 µM | > 100 µM | 79.3 µM |  |  |
| N#CC1CCCCC1NC1(C#N)CCCCC1 (configuration not stated) | > 100 µM | > 100 µM | > 100 µM | > 100 µM | > 100 µM | > 100 µM | > 100 µM | > 100 µM | > 100 µM | > 100 µM | > 100 µM | > 100 µM | > 100 µM | > 100 µM | > 100 µM |  | > 100 µM | > 100 µM |  |  |
| NS(=O)(=O)c1nnc(NS(=O)(=O)c2ccc(Cl)cc2)s1 | > 100 µM | > 100 µM | > 100 µM | > 100 µM | > 100 µM | > 100 µM | > 100 µM | > 100 µM | > 100 µM | > 100 µM |  |  | > 100 µM | > 100 µM | > 100 µM |  | > 100 µM | > 100 µM | > 100 µM | > 100 µM |
| CC(NC(=O)OC(C)(C)C)C(=O)NC(Cc1ccccc1)C(=O)NCC(=O)Oc1c(Cl)c(Cl)c(Cl)c(Cl)c1Cl (configuration not stated) | 33.9 µM | 35.4 µM |  | > 100 µM | > 100 µM |  |  |  | 59.3 µM | 30.4 µM | 44.2 µM |  | 73.8 µM | 43.9 µM | 40.7 µM | 49.4 µM | 47.8 µM | 46.7 µM |  |  |
| CCOC(=O)CC(NCc1ccc(N=Cc2nc3ccc(C(F)(F)F)cc3nc2-c2ccccc2)cc1)C(=O)OCC (configuration not stated) | > 100 µM | 56 µM | > 100 µM | > 69.8 µM | > 100 µM | > 100 µM | > 100 µM | > 100 µM | > 100 µM | > 100 µM | > 100 µM | > 100 µM | > 100 µM | > 100 µM | > 100 µM |  | > 100 µM | > 100 µM |  |  |
| COC(=O)C(Cc1nc2ccccc2[nH]c1=O)C(=O)C(=O)Nc1ccc(F)cc1 (configuration not stated) | > 100 µM | 47.1 µM | 56.4 µM | > 100 µM | > 100 µM | > 100 µM | > 100 µM | 22.3 µM | > 100 µM | > 100 µM | > 100 µM | > 100 µM | > 100 µM | 38.6 µM | > 100 µM |  |  |  |  |  |
| Cc1ccc2nc3c(C)cc(=O)cc-3sc2c1 | 83.9 µM |  | > 100 µM | > 100 µM | 65.4 µM | > 100 µM | > 100 µM | 45.1 µM | 38.9 µM | 48.8 µM | > 100 µM | 33.1 µM | 42.4 µM | > 100 µM | 52.8 µM |  |  | > 100 µM |  |  |
| CSc1nc2nc(C(O)C(O)C(O)CO)cnc2c(=O)[nH]1 (configuration not stated) | > 100 µM | > 100 µM | > 100 µM | > 100 µM | > 100 µM | > 100 µM | > 100 µM | > 100 µM | > 100 µM | > 100 µM | > 100 µM | > 100 µM | > 100 µM | > 100 µM | > 100 µM |  | > 100 µM | > 100 µM |  |  |
| COc1c(C)c(O)c2c(c1C)OC(c1ccccc1)CC2=O (configuration not stated) | > 100 µM |  | > 100 µM |  | > 100 µM | > 100 µM | > 100 µM | > 100 µM | > 100 µM | > 100 µM | > 100 µM | > 100 µM | > 100 µM | > 100 µM | > 100 µM |  | > 100 µM | > 100 µM |  |  |
| CCn1c(O)c(C=Nc2ccccc2)s/c1=N/Nc1nc(-c2ccc(O)c(O)c2)cs1 | > 100 µM | > 100 µM | > 100 µM | > 100 µM | > 100 µM | > 100 µM | 85.6 µM | 98.2 µM | 92.2 µM | > 100 µM | > 100 µM | 57 µM | > 100 µM | > 100 µM | > 100 µM | > 100 µM |  | > 100 µM |  | > 100 µM |
| CCCCCCC1CC(=O)C1(Cl)Cl (configuration not stated) | 34.2 µM |  | 66.5 µM | > 100 µM | 55.7 µM | > 100 µM | > 100 µM | 34.6 µM | 52.1 µM | 98.1 µM | 61.8 µM | 29.6 µM | 62.6 µM | 59.5 µM | 57.7 µM | > 100 µM |  | > 100 µM |  | 92.8 µM |
| CCSc1nnc(-c2ccccc2)nc1Cc1ccc(OC)cc1 | > 100 µM | > 100 µM | > 100 µM | > 100 µM | > 100 µM | > 100 µM | > 100 µM | > 100 µM | > 100 µM | > 100 µM | > 100 µM | > 100 µM | > 100 µM | > 100 µM | > 100 µM |  | > 100 µM | > 100 µM |  |  |
| COC(=O)C(/C(=N/N)C(=O)Nc1cccc(O)c1)c1nc2ccccc2[nH]c1=O (configuration not stated) | > 100 µM | > 100 µM | > 100 µM | > 100 µM | > 100 µM | > 100 µM | > 100 µM | > 100 µM | > 100 µM | > 100 µM | > 100 µM |  | > 100 µM | > 100 µM | > 100 µM | > 100 µM | > 100 µM | > 100 µM | > 100 µM |  |
